Measurements taken from ChEMBL document CHEMBL3271995, “Antineoplastic agents. 2. Structure-activity studies on N-protected vinyl, 1,2-dibromoethyl, and cyanomethyl esters of several amino acids” (J Med Chem, 1977).
Activity calls are given as the source filed them. The rule behind the calls is not given here.

What was measured:
Ehrlich [1] = assay: Antineoplastic activity against mouse EAC allografted in CF1 mouse assessed as ascites volume on day 7 measured at 33 mg/kg (reference value: 4.1 +/- 1.24 mL); assay type: functional
Ehrlich [2] = assay: Antineoplastic activity against mouse EAC allografted in CF1 mouse assessed as packed cell volume on day 7 measured at 33 mg/kg (reference value: 32.75 +/- 7.87%); assay type: functional
Ehrlich [3] = assay: Antineoplastic activity against mouse EAC allografted in CF1 mouse assessed as animal survival on day 7 measured at 33 mg/kg; assay type: functional, organism-based; design: dose 33 mg/kg
Ehrlich [4] = assay: Antineoplastic activity against mouse EAC allografted in CF1 mouse assessed as tumor growth inhibition on day 7 measured at 33 mg/kg; assay type: functional; conditions: 168 h, read-out: TGI
[5] = Acute toxicity in CF1 mouse; assay type: organism-based; conditions: in vivo
P388 [6] = assay: Antitumor activity against mouse P388 cells allografted in DBA/2 mouse assessed as median survival time of treated versus control mice (T/C) at 20 mg/kg/day, ip; assay type: functional; conditions: route intraperitoneal
P388 [7] = assay: Antitumor activity against mouse P388 cells allografted in DBA/2 mouse assessed as animal survival days at 20 mg/kg/day, ip; assay type: functional; conditions: route intraperitoneal

| SMILES | Activity (Ehrlich [1]) [mL] | Activity (Ehrlich [2]) [%] | Activity (Ehrlich [3]) | inhibition in vivo at 33 mg/kg (Ehrlich [4]) [%] | LD50 [5] [µmol/kg] | T/C (P388 [6]) [%] | Survival (P388 [7]) [days] |
| --- | --- | --- | --- | --- | --- | --- | --- |
| C=COC(=O)[C@H](Cc1ccccc1)NC(=O)c1ccccc1 | 2.1 | 9.8 | Active | 56.8 |  |  |  |
| C=COC(=O)[C@H](Cc1ccc(O)cc1)NC(=O)OCc1ccccc1 | 3.9 | 29.7 | Active | 16 |  |  |  |
| CC(C)C[C@H](NC(=O)OCc1ccccc1)C(=O)OCC#N | 2.7 | 38 | Active | 27 |  |  |  |
| C=COC(=O)CNC(=O)OCc1ccccc1 | 1.5 | 34 | Active | 63 | 2130 |  |  |
| C#CCOC(=O)CNC(=O)OCc1ccccc1 | 5.2 | 27 | Active | 0 |  |  |  |
| CC=O | 2 | 56 |  | 43 |  |  |  |
| O=Cc1ccccc1 [BENZALDEHYDE] | 0.8 | 49 | Active | 69 |  |  |  |
| O=C(O)C[C@H](NC(=O)OCc1ccccc1)C(=O)O | 3.7 | 21 | Active | 31 |  |  |  |
| O=c1[nH]cc(F)c(=O)[nH]1 [FLUOROURACIL] |  |  |  |  |  | 136 | 11 |
| N#CCOC(=O)[C@H](Cc1c[nH]c2ccccc12)NC(=O)OCc1ccccc1 | 4.3 | 19.7 | Active | 38 |  |  |  |
| O=C(O)CCCCCNC(=O)OCc1ccccc1 | 1 | 33 | Active | 63 |  |  |  |
| C=COC(=O)[C@H](CC(C)C)NC(=O)OCc1ccccc1 | 0.9 | 38 | Active | 48 |  |  |  |
| O=C(O)[C@@H]1CCCN1C(=O)OCc1ccccc1 | 1.9 | 32 | Active | 53 |  |  |  |
| N#CCOC(=O)CNC(=O)OCc1ccccc1 | 2.2 | 44.7 | Active | 29 |  |  |  |
| C=COC(=O)[C@H](Cc1ccccc1)NC(=O)OCc1ccccc1 | 0.1 | 0.4 | Active | 99.9 | > 6150 |  |  |
| C=COC(=O)[C@@H]1CCCN1C(=O)OCc1ccccc1 | 1 | 35 |  | 73 | 1820 |  |  |
| N#CCOC(=O)CCCCCNC(=O)OCc1ccccc1 | 1 | 41 | Active | 54 |  |  |  |
| C=COC(=O)CCCCCNC(=O)OCc1ccccc1 | 0.6 | 36 | Active | 75 |  |  |  |
| C=COC(=O)[C@H](Cc1ccc(O)cc1)NS(=O)(=O)c1ccc(C)cc1 | 1.9 | 17.5 | Active | 75 |  |  |  |
| N#CCOC(=O)C[C@H](NC(=O)OCc1ccccc1)C(=O)OCC#N | 4.7 | 33 |  | 7 |  |  |  |
| N#CCOC(=O)[C@H](Cc1ccccc1)NC(=O)OCc1ccccc1 | 0.2 | 0.1 | Active | 99.9 |  |  |  |

| SMILES | Activity (Ehrlich [1]) [mL] | Activity (Ehrlich [2]) [%] | Activity (Ehrlich [3]) | inhibition in vivo at 33 mg/kg (Ehrlich [4]) [%] | LD50 [5] [µmol/kg] | T/C (P388 [6]) [%] | Survival (P388 [7]) [days] |
| --- | --- | --- | --- | --- | --- | --- | --- |
| Sc1ncnc2nc[nH]c12 [MERCAPTOPURINE ANHYDROUS] | 0.7 | 0.3 | Active | 99.6 |  | 148 | 12 |
| O=C(OC(Br)CBr)[C@@H]1CCCN1C(=O)OCc1ccccc1 (some centres undefined) | 2.1 | 10 | Active | 84 | 190 |  |  |
| N#CCOC(=O)CC[C@H](NC(=O)OCc1ccccc1)C(=O)OCC#N | 3.2 | 32 | Active | 35 |  |  |  |
| O=C(O)CC[C@H](NC(=O)OCc1ccccc1)C(=O)O | 0.7 | 28 | Active | 81 | 1780 |  |  |
| O=C(O)CNC(=O)OCc1ccccc1 | 0.2 | 22 |  | 97 |  |  |  |
| O=C(CCCCCNC(=O)OCc1ccccc1)OC(Br)CBr (centres undefined) | 1.7 | 30 |  | 50 |  |  |  |
| N#CCOC(=O)[C@H](Cc1ccc(O)cc1)NC(=O)OCc1ccccc1 | 4.5 | 31.1 | Active | 0 |  |  |  |
| C#CCOC(=O)C[C@H](NC(=O)OCc1ccccc1)C(=O)OCC#C | 3.7 | 21 | Active | 31 |  |  |  |
| N#CCOC(=O)[C@H](CCC(N)=O)NC(=O)OCc1ccccc1 | 2 | 40 |  | 51 |  |  |  |
| Cc1ccc(S(=O)(=O)N[C@@H](Cc2ccccc2)C(=O)OCC#N)cc1 | 0.4 | 3.4 |  | 97 |  |  |  |
| C=COC(=O)CCCNC(=O)OCc1ccccc1 | 3.2 | 39.5 | Active | 6 |  |  |  |
| Cc1ccc(S(=O)(=O)N[C@@H](Cc2ccc(O)cc2)C(=O)OCC#N)cc1 | 3.8 | 15.8 |  | 56 | 220 |  |  |
| N#CCOC(=O)[C@H](Cc1ccccc1)NC(=O)c1ccccc1 | 1.8 | 13.2 |  | 47 |  |  |  |
| C=COC(=O)CC[C@H](NC(=O)OCc1ccccc1)C(=O)OC=C | 0.9 | 37 | Active | 69 | 1500 |  |  |
| O=C(O)CCCNC(=O)OCc1ccccc1 | 0.8 | 32.3 | Active | 71 |  |  |  |
| N#CCOC(=O)CCCNC(=O)OCc1ccccc1 | 0.6 | 48.8 |  | 71 |  |  |  |
| O=C(N[C@@H](Cc1ccccc1)C(=O)OC(Br)CBr)OCc1ccccc1 (some centres undefined) | 0 | 1.4 | Active | 100 |  |  |  |
| Cc1ccc(S(=O)(=O)N[C@@H](Cc2ccc(OS(=O)(=O)c3ccc(C)cc3)cc2)C(=O)OCC#N)cc1 | 0.8 | 6.5 | Active | 53 |  |  |  |
| Cc1ccc(S(=O)(=O)N[C@@H](Cc2ccccc2)C(=O)CCl)cc1 [TPCK] | 0.01 | 0.05 |  | 100 |  |  |  |
| C=COC(=O)[C@H](Cc1ccccc1)NS(=O)(=O)c1ccc(C)cc1 | 3.8 | 19.2 |  | 56.8 |  |  |  |
